Laboratory results published in patent US20120035247A1, “RNA Interference Mediated Inhibition of Signal Transducer and Activator of Transcription 6 (STAT6) Gene Expression Using Short Interfering Nucleic Acid (siNA)” (Merck Sharp & Dohme Corp., priority 2009, published 2012).
[invAb] = inverted abasic unit; m = 2'-O-methyl; r = 2'-OH (RNA); f = 2'-fluoro

Experiments:
STAT6 mRNA [1] = assay: STAT6 siNA screen in mouse NIH 3T3 cells, STAT6 mRNA by quantitative RT-PCR (Taqman); format: cell-based; details: mouse NIH3T3 cells, 10 nM siNA, 24 hrs, normalized to GAPDH and non-targeting control, n = 2
Experimental: NIH 3T3 (mouse; ATCC cat# CRL-1658): Cells were cultured at 37° C. in the presence of 5% CO2 and grown in Dulbecco's modified Eagle's medium (DMEM) with 4 mM L-glutamine adjusted to contain 1.5 g/L sodium bicarbonate and 4.5 g/L glucose and supplemented with fetal bovine serum at a final concentration of 10%, 100 μg/mL of streptomycin, and 100 U/mL penicillin.
(§1) Cells were plated in all wells of a tissue-culture treated, 96-well plate at a final count of 5000 cells/well in […], of the appropriate culture media. The cells were cultured for 24 hours after plating at 37° C. in the presence of 5% CO2.
(§2) After 24 hours, complexes containing siNA and RNAiMax were created as follows: A solution of RNAiMax diluted 33-fold in OPTI-MEM was prepared. In parallel, solutions of the siNAs for testing were prepared to a final concentration of 120 nM in OPTI-MEM. After incubation of RNAiMax/OPTI-MEM solution at room temperature for 5 min, an equal volume of the siNA solution and the RNAiMax solution were added together for each of the siNAs.
(§3) This solution was incubated at room temperature for 20 minutes. After incubation, 20 uL of the solution was added to each of the relevant wells. The final concentration of siNA in each well was 10 nM and the final volume of RNAiMax in each well was 0.3u1.
(§4) The time of incubation with the RNAiMax-siNA complexes was 24 hours and there was no change in media between transfection and harvesting, unless otherwise indicated.
(§5) RNA was extracted from a 96-well plate using the TaqMan® Gene Expression Cells-to-CT™ Kit (Cat#4399002) with a modified protocol. Briefly, a 60 uL (1 plate) or 110 uL (2 plates) of the Lysis Solution with DNase I was dispensed into each well of the Lysis Buffer Plate (twin.tec full skirt plate). The lysis buffer and stop plates were stored at 4° C. until the cells were washed.
(§6) The plate was spun at 1100 rpm for 5 minutes. The culture medium was aspirated and discarded from the wells of the culture plate. The lysis was performed automatically using a BioMek FX instrument and method. After the Biomek method was completed, the lysis plate was incubated for 2 min. at room temperature. The lysis plate can be stored for 2 hours at 4° C., or at −20° C. or −80° C. for two months.
(§7) Each well of the reverse transcription plate required 10 uL of 2× reverse transcriptase Buffer, luL of 20× reverse transcription enzyme and 2 uL of nuclease-free water. The reverse transcription master mix was prepared by mixing 2× reverse transcription buffer, 20× reverse transcription enzyme mix, and nuclease-free water. 13 uL of the reverse transcription master mix was dispensed into each well of the reverse transcription plate (semi-skirted). A separate reverse transcription plate was prepared for each cell plate. The plate was loaded onto a Biomek NX or Biomek FX Dual-96 and the Biomek method was run. The program is programmed to automatically added 7 uL of lysate from the cell lysis procedure described above into each well of the reverse transcription plate. The plate is sealed and spun on a centrifuge (1000 rpm for 30 seconds) to settle the contents to the bottom of the reverse transcription plate. The plate is placed in a thermocycler at 37° C. for 60 min, 95° C. for 5 min, and 4° C. until the plate is removed from the thermocycler. Upon removal, if not used immediately, the plate was frozen at −20° C.
(§8) A series of probes and primers were used to detect the various mRNA transcripts of the genes of 13-Actin (human cell line only), and of STATE and GAPDH in mouse and human cell lines. All Taqman probes and primers for the experiments here-in described were supplied as pre-validated sets by Applied Biosystems, Inc. (see Table 2).
The assays were performed on an ABI 7900 instrument, according to the manufacturer's instructions. A TaqMan Gene Expression Master Mix (provided in the Cells-to-CTT™, Applied Biosystems, Cat #4399002) was used. […]

STAT6 mRNA [2] = assay: STAT6 siNA screen and dose response in human A549 cells, STAT6 mRNA by quantitative RT-PCR (Taqman); format: cell-based; details: human A549 cells, 10 nM siNA, 24 hrs, normalized to GAPDH and non-targeting control, mean ± S.D., n = 3
Experimental: A549 (human; ATCC cat# CCL-185): Cells were cultured at 37° C. in the presence of 5% CO2 and grown in Ham's F12K medium with 2 mM L-glutamine adjusted to contain 1.5 g/L sodium bicarbonate and supplemented with fetal bovine serum at a final concentration of 10%, 100 μg/mL of streptomycin, and 100 U/mL penicillin.
as §1, §2, §3, §4, §5, §6, §7, §8
The assays were performed on an ABI 7900 instrument, according to the manufacturer's instructions. A TaqMan Gene Expression Master Mix (provided in the Cells-to-CTT™, Applied Biosystems, Cat #4399002) was used. The PCR reactions were carried out at 50° C. for 2 min, 95° C. for 20 min followed by 40 cycles at 95° C. for 15 secs and 60° C. for 1 min. […]

| Substance | % KD STAT6 (STAT6 mRNA [1]) [%] | % KD STAT6 (STAT6 mRNA [2]) [%] |
| --- | --- | --- |
| 30014-DC: STAT6 siNA duplex; sense SEQ ID NO: 92, antisense SEQ ID NO: 93; target GGCCUUUCAGCACCGCUGU, site 1755 (sense GGCCUUUCAGCACCGCUGUTT; antisense ACAGCGGUGCUGAAAGGCCUU; sense: DNA at AGT, 2'-fluoro at CU, [invAb] at 5' end, 3' end, backbone not given here; antisense: sugars from the 5' end rrrmfmmfmffmmmmmmffmm, backbone not given here) [STAT6 siNA duplex; target GGCCUUU…UGU, site 1755] | 30.6 ± 2.8 | −0.4 ± 17.4 |
| 30015-DC: STAT6 siNA duplex; sense SEQ ID NO: 94, antisense SEQ ID NO: 95; target CUCAGAUGUGACUAUGGUA, site 2544 (sense CUCAGAUGUGACUAUGGUATT; antisense UACCAUAGUCACAUCUGAGUU; sense: DNA at AGT, 2'-fluoro at CU, [invAb] at 5' end, 3' end, backbone not given here; antisense: sugars from the 5' end rrrfmfmmffmfmfffmmmmm, backbone not given here) [STAT6 siNA duplex; target CUCAGAUGUGACUAUGGUA, site 2544] | 81.6 ± 3.7 | 65.5 ± 7.6 |
| 30016-DC: STAT6 siNA duplex; sense SEQ ID NO: 96, antisense SEQ ID NO: 97; target GCCAGAUAACCAUGCCCUU, site 2447 (sense GCCAGAUAACCAUGCCCUUTT; antisense AAGGGCAUGGUUAUCUGGCUU; sense: DNA at AGT, 2'-fluoro at CU, [invAb] at 5' end, 3' end, backbone not given here; antisense: sugars from the 5' end rrrmmfmfmmffmfffmmfmm, backbone not given here) [STAT6 siNA duplex; target GCCAGAUAACCAUGCCCUU, site 2447] | 61.8 ± 2.3 | −20 ± 8.9 |
| 30017-DC: STAT6 siNA duplex; sense SEQ ID NO: 98, antisense SEQ ID NO: 99; target GAUGCUUUCUGUUACAACA, site 421 (sense GAUGCUUUCUGUUACAACATT; antisense UGUUGUAACAGAAAGCAUCUU; sense: DNA at AGT, 2'-fluoro at CU, [invAb] at 5' end, 3' end, backbone not given here; antisense: sugars from the 5' end rrrfmfmmfmmmmmmfmffmm, backbone not given here) [STAT6 siNA duplex; target GAUGCUUUCUGUUACAACA, site 421] | 85.1 ± 2 | −14.9 ± 9.1 |
| 30018-DC: STAT6 siNA duplex; sense SEQ ID NO: 100, antisense SEQ ID NO: 101; target CAGAAGAUCUUCAACGACA, site 1720 (sense CAGAAGAUCUUCAACGACATT; antisense UGUCGUUGAAGAUCUUCUGUU; sense: DNA at AGT, 2'-fluoro at CU, [invAb] at 5' end, 3' end, backbone not given here; antisense: sugars from the 5' end rrrfmffmmmmmffffffmmm, backbone not given here) [STAT6 siNA duplex; target CAGAAGAUCUUCAACGACA, site 1720] | 64.8 ± 0.7 | 66.8 ± 3.2 |
| 30019-DC: STAT6 siNA duplex; sense SEQ ID NO: 102, antisense SEQ ID NO: 103; target GAAACAGCAUCUUGCCGCA, site 506 (sense GAAACAGCAUCUUGCCGCATT; antisense UGCGGCAAGAUGCUGUUUCUU; sense: DNA at AGT, 2'-fluoro at CU, [invAb] at 5' end, 3' end, backbone not given here; antisense: sugars from the 5' end rrrmmfmmmmfmffmffffmm, backbone not given here) [STAT6 siNA duplex; target …UCUUGCCGCA, site 506] | 59.6 ± 7.3 | −9.5 ± 20.6 |
| 30020-DC: STAT6 siNA duplex; sense SEQ ID NO: 104, antisense SEQ ID NO: 105; target CUAGCCUUCUCCUCAAUGA, site 1928 (sense CUAGCCUUCUCCUCAAUGATT; antisense UCAUUGAGGAGAAGGCUAGUU; sense: DNA at AGT, 2'-fluoro at CU, [invAb] at 5' end, 3' end, backbone not given here; antisense: sugars from the 5' end r3 f2 m10 f2 m4, backbone not given here) [STAT6 siNA duplex; target CUAGCCUUCUCCUCAAUGA, site 1928] | 64.2 ± 7.9 | 58.8 ± 13.6 |
| 30021-DC: STAT6 siNA duplex; sense SEQ ID NO: 106, antisense SEQ ID NO: 107; target GUCAAUGGUCCUGGUCCAA, site 793 (sense GUCAAUGGUCCUGGUCCAATT; antisense UUGGACCAGGACCAUUGACUU; sense: DNA at AGT, 2'-fluoro at CU, [invAb] at 5' end, 3' end, backbone not given here; antisense: sugars from the 5' end rrrmmffmmmmffmffmmfmm, backbone not given here) [STAT6 siNA duplex; target GUCAAUGGUCCUGGUCCAA, site 793] | −7 ± 7.2 | 17.2 ± 7.5 |
| 30022-DC: STAT6 siNA duplex; sense SEQ ID NO: 108, antisense SEQ ID NO: 109; target CCAAGACCCGGGCAUCGCU, site 1037 (sense CCAAGACCCGGGCAUCGCUTT; antisense AGCGAUGCCCGGGUCUUGGUU; sense: DNA at AGT, 2'-fluoro at CU, [invAb] at 5' end, 3' end, backbone not given here; antisense: chemistry not given here; in the key) [STAT6 siNA duplex; target …UCGCU, site 1037] | 51.5 ± 0 | 56.1 ± 8.3 |
| 30023-DC: STAT6 siNA duplex; sense SEQ ID NO: 110, antisense SEQ ID NO: 111; target CACCUUAUGAUCUUGGAAU, site 2288 (sense CACCUUAUGAUCUUGGAAUTT; antisense AUUCCAAGAUCAUAAGGUGUU; sense: DNA at AGT, 2'-fluoro at CU, [invAb] at 5' end, 3' end, backbone not given here; antisense: sugars from the 5' end rrrffmmmmffmfmmmmfmmm, backbone not given here) [STAT6 siNA duplex; target CACCUUAUGAUCUUGGAAU, site 2288] | −0.8 ± 3.8 | 15.3 ± 05.4 |
